Laboratory results: patent US4246342A, “Process for the manufacture of pyruvate oxidase, and analytical method and kit for the use of the same” (Toyo Jozo Kabushiki Kaisha, priority 1978, dated 1981)

Key:
[1] = tested on: pyruvate oxidase (B-0667); experiment: Effect of several substances added on the enzyme activity; assay type: biochemical, Pediococcus sp. B-0667; settings: 5 mM of the substance added instead of MgCl2 in the assay system; enzyme from B-0667; MgCl2 = 100
Description: (§1) (a) Effect of several substances on the enzyme activity is examined by adding 5 mM of the substance indicated below instead of MgCl2 in the assay system.
(§2) The assay method of pyruvate oxidase of the present invention uses a reaction mixture as follows: […]
(§3) The above reaction mixture (1.0 ml) is pre-incubated at 37° C. for 3 minutes. To this solution is added the enzyme solution (20 μl) and incubated at 37° C. for 10 minutes. 0.1 M citrate buffer (pH 6.0, 2 ml) containing 0.1 M EDTA is added to stop the reaction. The violet color formed is measured by colorimetric method at 565 nm.
(§4) A unit (1 unit, 1 U) of enzyme activity is defined as the activity which generates 1 μmole of hydrogen peroxide per minute.

[2] = tested on: pyruvate oxidase (B-0668); experiment: as above; assay type: biochemical, Streptococcus sp. B-0668; settings: 5 mM of the substance added instead of MgCl2 in the assay system; enzyme from B-0668; MgCl2 = 100
Description: as §1, §2, §3, §4

[3] = target: T1, pyruvate oxidase (IFO-12219) (Aerococcus viridans, UniProt A0ABP2I6X2); experiment: as above; assay type: biochemical, Aerococcus viridans IFO-12219; settings: 5 mM of the substance added instead of MgCl2 in the assay system; enzyme from IFO-12219; MgCl2 = 100
T1 sequence (A0ABP2I6X2 1-592): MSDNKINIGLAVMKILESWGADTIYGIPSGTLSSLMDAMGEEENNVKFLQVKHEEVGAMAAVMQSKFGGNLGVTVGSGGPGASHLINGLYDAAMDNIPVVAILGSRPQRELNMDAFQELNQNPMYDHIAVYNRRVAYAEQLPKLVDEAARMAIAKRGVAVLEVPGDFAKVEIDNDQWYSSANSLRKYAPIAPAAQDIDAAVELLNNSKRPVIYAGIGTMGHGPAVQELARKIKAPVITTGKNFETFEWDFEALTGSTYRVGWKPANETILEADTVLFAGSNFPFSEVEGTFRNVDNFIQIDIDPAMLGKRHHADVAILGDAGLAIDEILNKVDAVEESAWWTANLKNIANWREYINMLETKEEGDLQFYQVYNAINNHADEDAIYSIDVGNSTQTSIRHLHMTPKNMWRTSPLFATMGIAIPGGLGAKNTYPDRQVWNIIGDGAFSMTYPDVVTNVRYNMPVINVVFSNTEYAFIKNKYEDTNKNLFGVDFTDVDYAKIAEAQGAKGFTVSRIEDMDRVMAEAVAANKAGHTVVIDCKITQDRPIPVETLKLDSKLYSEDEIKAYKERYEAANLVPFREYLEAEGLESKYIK
Description: as §1, §2, §3, §4

[4] = target: T2, pyruvate oxidase (IFO-12317) (Aerococcus viridans, UniProt A0ABP2I6X2); experiment: as above; assay type: biochemical, Aerococcus viridans IFO-12317; settings: 5 mM of the substance added instead of MgCl2 in the assay system; enzyme from IFO-12317; MgCl2 = 100
T2 sequence (A0ABP2I6X2 1-592): T1 sequence (A0ABP2I6X2 1-592)
Description: as §1, §2, §3, §4

pyruvate oxidase = experiment: Effect of substances on the enzyme, summary statements for the four strains; assay type: biochemical; settings: summary in words; for Effect on the enzyme (inhibited / activated): 5 mM substance; for Requirement of the enzyme for the substance (cofactor / substrate): elimination from the assay system
Description: as §1
0.1 M dimethylglutarate-NaOH buffer is used in the case of phosphate elimination.
The assay method of pyruvate oxidase of the present invention uses a reaction mixture as follows:
as §3

[5] = tested on: pyruvate oxidase (B-0667); experiment: Effect of elimination of a substance from the assay system on the enzyme activity; assay type: biochemical, Pediococcus sp. B-0667; settings: enzyme from B-0667, no elimination = 100, 0.1 M dimethylglutarate-NaOH buffer for phosphate elimination
Description: (§5) (b) Effect of elimination of the following substance from the assay system on the enzyme activity is shown below. 0.1 M dimethylglutarate-NaOH buffer is used in the case of phosphate elimination.
as §2, §3, §4

[6] = tested on: pyruvate oxidase (B-0668); experiment: as above; assay type: biochemical, Streptococcus sp. B-0668; settings: enzyme from B-0668, no elimination = 100, 0.1 M dimethylglutarate-NaOH buffer for phosphate elimination
Description: as §5, §2, §3, §4

[7] = target: T1, pyruvate oxidase (IFO-12219); experiment: as above; assay type: biochemical, Aerococcus viridans IFO-12219; settings: enzyme from IFO-12219, no elimination = 100, 0.1 M dimethylglutarate-NaOH buffer for phosphate elimination
Description: as §5, §2, §3, §4

[8] = target: T2, pyruvate oxidase (IFO-12317); experiment: as above; assay type: biochemical, Aerococcus viridans IFO-12317; settings: enzyme from IFO-12317, no elimination = 100, 0.1 M dimethylglutarate-NaOH buffer for phosphate elimination
Description: as §5, §2, §3, §4

Molecule	Relative activity (%) [1] [%]	Relative activity (%) [2] [%]	Relative activity (%) [3] [%]	Relative activity (%) [4] [%]	Effect on the enzyme (inhibited / activated) (pyruvate oxidase)	Relative activity (%), substance eliminated [5] [%]	Relative activity (%), substance eliminated [6] [%]	Relative activity (%), substance eliminated [7] [%]	Requirement of the enzyme for the substance (cofactor / substrate) (pyruvate oxidase)	Relative activity (%), substance eliminated [8] [%]
[Ba+2].[Cl-].[Cl-] [BaCl2]	20.6	58.8	23.9	28.8						
[Ca+2].[Cl-].[Cl-] [CaCl2]	69.4	75.0	83.4	78.7	activated					
[Cl-].[Cl-].[Co+2] [CoCl2]	81.3	81.1	85.0	84.0	activated					
O=C(O)CN(CCN(CC(=O)O)CC(=O)O)CC(=O)O [EDTA, ethylene-diaminetetraacetic acid]	0	0	0		inhibited					
Cc1cc2nc3c(=O)[nH]c(=O)nc-3n(C[C@H](O)[C@H](O)[C@H](O)COP(=O)(O)OP(=O)(O)OC[C@H]3O[C@@H](n4cnc5c(N)ncnc54)[C@H](O)[C@@H]3O)c2cc1C [FAD, flavin adenine dinucleotide]						33.9	100	32.7	requires	
[Cl-].[Cl-].[Mg+2] [MgCl2]	100	100	100	100	activated					
[Cl][Mn][Cl] [MnCl2]	129.1	102.7	116.2	111.0	activated					
Cc1ncc(C[n+]2csc(CCO[P@](=O)(O)OP(=O)(O)O)c2C)c(N)n1 [Thiaminepyrophosphate, thiamine pyrophosphate]						0	0	0	requires	
[Cl-].[Cl-].[Zn+2] [ZnCl2]	16.0	38.2	14.9	22.8						
phosphate						0	0	0	requires	0
